Entries after “also recorded” stand apart in the source; their conditions may differ.
Key:
[1] = tested on: DNA; conditions: pro-oxidant potential; cited from earlier work
[2] = tested on: human erythrocytes and human cataractous lenses; conditions: cited from earlier work
[3] = tested on: vascular mesenteric bed; assay: Rat arteriolar mesenteric bed: acetylcholine-evoked decrease in perfusion pressure after 4-week oral treatment; assay type: in vivo, alloxan-diabetic male Wistar rats; conditions: chronic (4-week) oral administration, highest acetyl choline concentrations, FIG. 4
Experimental: Male Wistar rats, weighing between 230-250 g, fed regular chow, with free access to water were separated in four groups (n=10/each). The first two groups, termed normoglycemic, were treated with saline (0.1 mL/100 g/12 h) by the oral route (intragastric gavage) or untreated for four weeks. The second two groups, hyperglycemic, were treated with saline (0.1 mL/100 g/12 h) or treated with D-chiro-inositol (20 mg/kg/12 h) under the same protocol. […] Diabetes was induced by a single intravenous injection of 45 mg/kg alloxan as described by Sannomiya et al., 1997 ( ). Diabetes was diagnosed 96 h after injection by blood glucose assay >200 mg/dL. All protocols were approved by the local committee and follow the Guide for the Care and Use of Laboratory Animals published by the US National Institutes of Health (NIH Publication No. 85-23, revised 1996).
The mesentery was carefully removed by cutting close to the intestinal border with a small scissors. […] The vascular bed was rapidly perfused with warm KHS (37° C.; pH 7.4; gassed with 95% O2 in 5% CO2) in an open system with a constant flow of 4 ml/min maintained with a peristaltic pump. Alterations in perfusion pressure were continuously recorded in a four-channel polygraph (Narco Biosystems, Houston, Tex., USA) by means of a pressure transducer (P23 Gould Stratham, Oxnard, Calif., USA). After a 30 minute equilibration period, phenylephrine (1 to 5 μM) was infused by means of an infusion pump at a constant rate (0.1 ml/min) in order to achieve a stable perfusion pressure (100-120 mm Hg). Dose response curves were performed with vasodilators, i.e. acetylcholine (Ach; 10^-9 to 10^-3 M). Drugs were injected as 50 μL boluses, previously shown not to effect perfusion pressure in a side arm just above the cannula in the mesenteric artery. At least 6 separate experiments were performed each in duplicate.

[4] = tested on: ROS generated by xanthine/xanthine oxidase; assay: Superoxide assay in vitro: xanthine/xanthine oxidase, NBT reduction; assay type: biochemical; conditions: low micromolar concentrations, FIG. 10
Experimental: Superoxide radicals were generated by the reaction of xanthine (1 mM) and xanthine oxidase ([…]) in air-saturated potassium phosphate buffer (pH 7.8 at 25° C.). Superoxide anions were detected by nitroblue tetrazolium (NBT—50 μM) which undergoes reduction by O2-. to its formazan. The rate of reduction was monitored spectrophotometrically at 560 nm with an Ultrospec 1000 (Pharmacia Biotech, Cambridge, England). SOD-1, by scavanging O2-. Diminishes the rate of reduction of NBT. The volume was fixed at 2 mL. Each experiment was run in duplicate.

[5] = tested on: aortic rings; assay: Rat aortic thoracic rings: acetylcholine relaxation after phenylephrine contraction, 4-week oral treatment; assay type: in vivo, alloxan-diabetic male Wistar rats; conditions: chronic oral administration, acetylcholine 10^-7 M, FIG. 3
Experimental: Male Wistar rats, weighing between 230-250 g, fed regular chow, with free access to water were separated in four groups (n=10/each). The first two groups, termed normoglycemic, were treated with saline (0.1 mL/100 g/12 h) by the oral route (intragastric gavage) or untreated for four weeks. The second two groups, hyperglycemic, were treated with saline (0.1 mL/100 g/12 h) or treated with D-chiro-inositol (20 mg/kg/12 h) under the same protocol. […] Diabetes was induced by a single intravenous injection of 45 mg/kg alloxan as described by Sannomiya et al., 1997 ( ). Diabetes was diagnosed 96 h after injection by blood glucose assay >200 mg/dL. All protocols were approved by the local committee and follow the Guide for the Care and Use of Laboratory Animals published by the US National Institutes of Health (NIH Publication No. 85-23, revised 1996). After completion of blood pressure measurements and vascular mesenteric bed collection, animals were sacrificed by exsanguination while under anesthesia. The thoracic aorta was excised and rapidly cleansed of connective tissue in Petri dishes containing warmed and gassed (95% O2 in 5% CO2) Krebs-Henseleit solution (KHS). The aorta segment was cut in small rings (≈5 mm) and mounted horizontally in 5 mL chambers for isometric recording of tension. The resting tension was adjusted to 1 g and the tissue allowed to equilibrate for 1 hour with a 15 min washout period. Tissues were kept in KHS at 37° C., gassed with the O2, CO2 mixture and isometric recordings made with a force displacement transducer connected to a four-channel polygraph (Narco Biosystems, Houston, Tex., USA). After the equilibration period, tissues were contracted with a submaximal concentration of phenylephrine (≈60% maximal response) until two similar responses were obtained in order to ensure reproducibility of the contraction curves. […] The acetylcholine dose response curve was repeated after a 60 min washout interval. All experiments were performed in the presence of indomethecin (10 μM) and guanethidine (10 μM) to prevent the production of vasoactive prostanoids. At least 6 separate experiments will be performed each in duplicate.

[6] = tested on: penile corpus cavernosus; assay: Rabbit penile corpus cavernosus: relaxation to electrical field stimulation after 60 min incubation; parameters: species or system low dose alloxan-diabetic rabbit; conditions: 1 μM, EFS 2-16 Hz, FIG. 8
Experimental: Male California rabbits, weighing 2-2.5 kg, were provided by the vivarium of the Biomedicine Institute-UFC. Diabetes was induced by intraperitoneal injection of alloxan (150 mg/kg) and only animals with plasma glucose concentration above 200 mg/dl were included in the study. Age-matched euglycemic rabbits were used as controls.
Kidneys and aortic rings were harvested from diabetic rabbits after 3 weeks of alloxan injection. The animals were sacrificed under sodium pentobarbital anesthesia (Hypnol®, 150-200 mg/kg). […]. Rabbit kidneys were obtained from male New Zealand rabbits (1-1.5 kg) after cannulation of the renal artery in situ. [Thereafter the organ is rapidly perfused with warm KHS at 37° C., pH 7.4 and gassed with 95% O2 in 5% CO2 in an open system with a constant flow adjusted to yield 1 mL/g/min and maintained by a peristaltic pump. The alterations in perfusion pressure are continuously recorded in a four-channel polygraph (Narco Biosystems, Houston, Tex., USA) by means of a pressure transducer (P23 Gould Stratham, Oxnard, Calif., USA). After a 30 minute equilibration period, phenylephrine (1 to 5 μM) is infused by means of an infusion pump at a constant rate (0.1 ml/min) in order to achieve a stable perfusion pressure (100-120 mm Hg). Concentration-response curves are performed to the vasodilators, i.e. acetylcholine (Ach; 10^-9 to 10^-3 M). Drugs are injected as a 50 μL bolus, previously shown not to effect perfusion pressure in an arm side just above the cannula in the renal artery.] Following penectomy, the corpus cavernosum was dissected in Krebs solution and cleared of the tunica albuginea and surrounding tissues. Strips (2 cm) were mounted vertically in isometric baths (5 mL) in Krebs-Henseleit solution (37° C., pH 7.4 gassed with 95% O2 in 5% CO2) enriched with indomethecin (10 μM) and guanethedine (10 μM) in order to avoid prostanoid or neuronal norandrenergic interaction. After a 60 minute period for stabilization, tissues were precontracted with 10 μM phenylephrine in order to increase the basal tonus. Thereafter, frequency response curves to transmural electrical field stimulations (EFS—square wave pulses: 10 s train; 20 V, 0.5 ms, 2-16 Hz) were performed until two stable reproducible curves were attained. Then, frequency response curves were repeated after 60 min incubation with saline or 1 μM pinitol, DCI or db-DCI in the alloxan-diabetic rabbits. They are perfused with KHS containing 1 μM D-chiro-inositol, pinitol, dibutyryl D-chiro-inositol, myo-inositol or saline for 60 min. Dose response curves for acetylcholine are then performed following prior phenylephrine vasoconstriction as described. At least 6 separate experiments were performed each in duplicate.

Compound | oxidative DNA damage [1] | effect on microvascular endothelial dysfunction [3] | reduction of ROS generated by xanthine/xanthine oxidase [4] | effect on macrovascular endothelial dysfunction at intermediate acetylcholine concentration [5] | other results
CC(=O)N[C@@H](CS)C(=O)O [N-acetylcysteine] | cause oxidative DNA damage | – | – | – | –
O=P(O)(O)O[C@H]1[C@H](OP(=O)(O)O)[C@@H](OP(=O)(O)O)[C@H](OP(=O)(O)O)[C@@H](OP(=O)(O)O)[C@H]1OP(=O)(O)O [Phytic acid, Myoinositol hexaphosphate] | does not cause oxidative DNA damage even at high concentrations | – | – | – | –
O[C@H]1[C@H](O)[C@@H](O)[C@H](O)[C@@H](O)[C@H]1O [myoinositol, reference compound] | – | perhaps slightly better than pinitol and DCI | reduced ROS in a low micromolar concentration dependant manner | followed by DCI, pinitol and myoinositol in descending order of effect | peroxidation effect of hydrogen peroxide [2]: decrease the peroxidation effect of hydrogen peroxide; effect on microvascular endothelial dysfunction ([3]; listed as myo-inositol): perhaps slightly better than pinitol and D-chiro-inositol; reduction of ROS generated by xanthine/xanthine oxidase ([4]; listed as myo-inositol): equally effective; effect on macrovascular endothelial dysfunction at intermediate acetylcholine concentration ([5]; listed as myo-inositol): active at intermediate acetyl choline concentrations
CO[C@H]1[C@H](O)[C@@H](O)[C@@H](O)[C@H](O)[C@@H]1O [pinitol] | – | approximately equally effective | equally effective; also recorded: reduced ROS in a low micromolar concentration dependant manner | followed by DCI, pinitol and myoinositol in descending order of effect; also recorded: active at intermediate acetyl choline concentrations | restoration of vasorelaxant effect of electrical stimulation of the pudendal nerve [6]: restoration of vasorelaxant effect
O=c1c(O)c(-c2ccc(O)c(O)c2)oc2cc(O)cc(O)c12 [quercetin] | cause oxidative DNA damage | – | – | – | –
Vitamin A | cause oxidative DNA damage | – | – | – | –

From patent US20060258754A1, “Method of treating endothelial dysfunction, oxidative stress and related diseases” (priority 2004, published 2006)
